# Results from article PMC11676996, “Inhibitory Effects of Sulfur Derivatives on Leishmania tarentolae Cell Viability and Secreted Acid Phosphatase In Vitro” (Microorganisms, 2024).
# System: T1, secreted acid phosphatase (SAP)
# T1 construct: native enzyme activity in cell-free culture supernatant
# Test: pNPP phosphatase assay, compound added directly to control cell-free supernatant, dose-dependent
# Type: biochemical, Leishmania tarentolae
structure (smiles),measurement,value
COc1cc(/C=N/NC(=S)SC)cc(OC)c1O [ZZ1-04],IC50,60 to 80 µM
